# Source: ChEMBL document CHEMBL3396981, “Synthesis and in vitro biological evaluation of 2-(phenylcarbamoyl)phenyl 4-substituted benzoates” (Bioorg Med Chem, 2015)
# pIC50: −log10 of the molar value.
# Tests used:
# [1] = system: Mycobacterium tuberculosis; assay: Antimycobacterial activity against Mycobacterium tuberculosis H37Rv 331/88 after 14 days by microdilution method; assay type: functional; conditions: H37Rv 331/88, 336 h
# [2] = system: Mycobacterium tuberculosis; assay: Antimycobacterial activity against Mycobacterium tuberculosis H37Rv 331/88 after 21 days by microdilution method; assay type: functional; conditions: H37Rv 331/88, 504 h
# Mycobacterium avium [3] = assay: Antimycobacterial activity against INH,RIF,OFX,EMB-resistant Mycobacterium avium 330/88 after 14 days by microdilution method; assay type: functional; conditions: 330/88, 336 h
# Mycobacterium avium [4] = assay: Antimycobacterial activity against INH,RIF,OFX,EMB-resistant Mycobacterium avium 330/88 after 21 days by microdilution method; assay type: functional; conditions: 330/88, 504 h
# Mycobacterium kansasii [5] = assay: Antimycobacterial activity against Mycobacterium kansasii 235/80 after 7 days by microdilution method; assay type: functional; conditions: 235/80, 168 h
# Mycobacterium kansasii [6] = assay: Antimycobacterial activity against Mycobacterium kansasii 235/80 after 14 days by microdilution method; assay type: functional; conditions: 235/80, 336 h
# Mycobacterium kansasii [7] = assay: Antimycobacterial activity against Mycobacterium kansasii 235/80 after 21 days by microdilution method; assay type: functional; conditions: 235/80, 504 h
# Mycobacterium kansasii [8] = assay: Antimycobacterial activity against Mycobacterium kansasii 6509/96 after 7 days by microdilution method; assay type: functional; conditions: 6509/96, 168 h
# Mycobacterium kansasii [9] = assay: Antimycobacterial activity against Mycobacterium kansasii 6509/96 after 14 days by microdilution method; assay type: functional; conditions: 6509/96, 336 h
# Mycobacterium kansasii [10] = assay: Antimycobacterial activity against Mycobacterium kansasii 6509/96 after 21 days by microdilution method; assay type: functional; conditions: 6509/96, 504 h
# HepG2 [11] = assay: Cytostatic activity against human HepG2 cells after 72 hrs by MTT assay; assay type: functional, cell-based; conditions: HepG2, 72 h
# HepG2 [12] = assay: Cytotoxicity against human HepG2 cells after 72 hrs by MTT assay; assay type: cell-based; conditions: HepG2, 72 h
# [13] = Selectivity index, ratio of IC50 for human HepG2 cells to MIC for Mycobacterium tuberculosis; assay type: toxicity, cell-based; conditions: read-out: Selectivity Index
# [14] = Selectivity index, ratio of IC50 for human HepG2 cells to MIC for atypical mycobacteria
Structure (SMILES),MIC [1],MIC [2],MIC (Mycobacterium avium [3]),MIC (Mycobacterium avium [4]),MIC (Mycobacterium kansasii [5]),MIC (Mycobacterium kansasii [6]),MIC (Mycobacterium kansasii [7]),MIC (Mycobacterium kansasii [8]),MIC (Mycobacterium kansasii [9]),MIC (Mycobacterium kansasii [10]),pIC50 (HepG2 [11]),pIC50 (HepG2 [12]),selectivity ratio [13],Selectivity Index [14]
O=C(Oc1ccc(Cl)cc1C(=O)Nc1ccc(C(F)(F)F)cc1)c1ccc([N+](=O)[O-])cc1,0.5 µM,1 µM,4 µM,4 µM,1 µM,2 µM,4 µM,1 µM,2 µM,4 µM,5.94,< 4.30,> 50,>12.5
O=C(Oc1ccc(Cl)cc1C(=O)Nc1ccc(C(F)(F)F)cc1)c1ccccc1,0.5 µM,1 µM,4 µM,4 µM,1 µM,1 µM,1 µM,2 µM,2 µM,2 µM,,,,
O=C(Oc1ccc(Cl)cc1C(=O)Nc1ccc(Cl)c(Cl)c1)c1ccccc1,1 µM,1 µM,8 µM,8 µM,2 µM,4 µM,4 µM,1 µM,2 µM,2 µM,,,,
O=C(Nc1ccc(C(F)(F)F)cc1)c1cc(Cl)ccc1O,2 µM,2 µM,8 µM,8 µM,1 µM,2 µM,2 µM,2 µM,2 µM,2 µM,,,,
O=C(Nc1ccc(Cl)c(Cl)c1)c1cc(Cl)ccc1O,4 µM,8 µM,32 µM,32 µM,4 µM,8 µM,8 µM,8 µM,8 µM,8 µM,,,,
O=C(Oc1ccc(Br)cc1C(=O)Nc1ccc(C(F)(F)F)cc1)c1ccc(C(F)(F)F)cc1,1 µM,1 µM,2 µM,4 µM,1 µM,2 µM,4 µM,1 µM,2 µM,4 µM,,,,
O=C(Oc1ccc(Cl)cc1C(=O)Nc1ccc(Cl)c(Cl)c1)c1ccc(C(F)(F)F)cc1,1 µM,1 µM,4 µM,4 µM,1 µM,2 µM,4 µM,1 µM,2 µM,4 µM,,,,
Cc1ccc(C(=O)Oc2ccc(Cl)cc2C(=O)Nc2ccc(Cl)c(Cl)c2)cc1,1 µM,1 µM,8 µM,8 µM,1 µM,2 µM,2 µM,2 µM,4 µM,4 µM,5.59,< 4.30,> 50,>6.25
O=C(Oc1ccc(Cl)cc1C(=O)Nc1ccc(C(F)(F)F)cc1)c1ccc(Br)cc1,1 µM,1 µM,4 µM,4 µM,0.5 µM,1 µM,1 µM,1 µM,2 µM,2 µM,4.84,< 4.30,> 50,>12.5
